In US9481639B2, “Substituted tetracycline compounds for treatment of inflammatory skin disorders” (Paratek Pharmaceuticals, Inc., priority 2006, dated 2016):
Converted amounts (≈) assume the structure as drawn. Read-outs that look alike come from different tables or passages of the source.

Tests used:
[1] = test system: B. thetaiotaomicron ATCC 29741; assay: Antibacterial MIC, CLSI broth microdilution; type: cell-based
Protocol: (§1) Gram (−) and gram (+) antibacterial minimum inhibitory concentration (MIC) values (μg/mL) were obtained using CLSI methodology for anti-bacterial susceptibility testing. On each day of testing, serial dilutions of compounds were prepared in microdilution plates using a Tecan robotic workstation. Mueller Hinton broth cultures of representative sensitive and resistant gram negative strains were grown or adjusted to match the turbidity of a 0.5 McFarland standard. 1:200 dilutions were made in an appropriate broth (cation supplemented Mueller Hinton broth) to allow a final inoculum of 1×10^5 cfu. Plates were incubated at 35° C. in ambient air for 18-24 hours, were read spectrophotometrically and checked manually for evidence of bacterial growth. The lowest dilution of compound that inhibited growth was recorded as the MIC. Lysed horse blood was used to supplement broth for testing S. pneumoniae. The MIC's for each compound were assessed against S. aureus, S. pneumoniae, P. acnes, E. coli and B. theta.

E. coli ATCC 25922 = assay: Antibacterial MIC, CLSI broth microdilution; type: cell-based; conditions: Escherichia coli, ATCC25922; 35° C., 18-24 hours
Protocol: as §1

E. coli MG. 1655 = assay: Antibacterial MIC, CLSI broth microdilution; type: cell-based; conditions: Escherichia coli, 35° C., 18-24 hours
Protocol: as §1

P. acnes ATCC 11827 = assay: Antibacterial MIC, CLSI broth microdilution; type: cell-based; conditions: Cutibacterium acnes, ATCC11827
Protocol: as §1

P. acnes ATCC 6919 = assay: Antibacterial MIC, CLSI broth microdilution; type: cell-based; conditions: Cutibacterium acnes, ATCC6919
Protocol: as §1

S. aureus RN450 [2] = assay: Antibacterial MIC, CLSI broth microdilution; type: cell-based; conditions: Staphylococcus aureus, 35° C., 18-24 hours
Protocol: as §1

[3] = test system: S. pneumoniae 157E - Strep; assay: Antibacterial MIC, CLSI broth microdilution; type: cell-based; conditions: Streptococcus pneumoniae, 157ESTREP; broth supplemented with lysed horse blood
Protocol: as §1

in vitro = type: cell-based
Protocol: Mammalian cell cytotoxicity was assessed to evaluate potential in vivo risks associated with the tetracycline compounds of the invention. A soluble, non-toxic redox dye (“Resazurin”; Alamar Blue) was used to assess a tetracycline compound's effect on cellular metabolism. At the onset of the experiment, cultures of mammalian COS-1 or CHO cells were washed, trypsinized, and harvested. […] On the next day, serial dilutions of test drug were prepared under sterile conditions and transferred to cell plates. Plates were then incubated under the above conditions for 24 hours. Following the incubation period, the media/drug was aspirated, and 50 μL of resazurin was added. Plates were then incubated under the above conditions for 2 hours and then in the dark at room temperature for an additional 30 minutes. Fluorescence measurements were taken (excitation 535 nm, emission 590 nm) and toxic effects in treated versus control cells were compared based on the degree of fluorescence in each well.

S. aureus RN450 [4] = assay: In vivo anti-bacterial activity, S. aureus lethal infection model; conditions: Staphylococcus aureus, sc; mice, lethal IP S. aureus RN450, single subcutaneous dose 5 mg/kg, survival at 24 hours; read-out: Percent Survival
Protocol: Groups of five mice were injected intraperitoneally with a lethal dose of S. aureus RN450 in a medium of mucin. Mice were evaluated at 24 hours to determine survival. […] In some instances, a dose response study was performed with the compound such that a PD50 (a dose of compound that protects 50% of the animals) could be calculated.

[5] = test system: carrageenan induced rat paw inflammation; assay: Rat carrageenan-induced paw edema inflammatory model; type: in vivo; conditions: for 50% effective concentration (EC50), carrageenan induced paw inflammation: IP 30 minutes before carrageenan, paw volume 3 hours after
Protocol: The model used a sub-plantar injection of carrageenan in the rat to induce an inflammatory response. The test compound or saline (control) was administered IP 30 minutes before a subplantar injection of carrageenan (1.5 mg/0.1 mL). Paw volume was measured […] before subplantar injection and again 3 hours after the injection of carrageenan using a plethysmometer. Significant differences as determined by a Kruskal-Wallis One Way ANOVA are noted between the inflammation of the untreated controls versus treated animals […]

[6] = Bacteroides thetaiotaomicron, ATCC29741, read-out: MIC B. thetaiotaomicron ATCC 29741

SMILES | MIC ([1]; Bacteroides thetaiotaomicron, ATCC29741; read-out: MIC B. thetaiotaomicron ATCC 29741) | MIC (E. coli ATCC 25922) | MIC (E. coli MG. 1655) | MIC (P. acnes ATCC 11827) | MIC (P. acnes ATCC 6919) | MIC (S. aureus RN450 [2]) | MIC [3] | IC50 at 24 h (in vitro; African green monkey) | IC50 at 24 h (in vitro; Chinese hamster) | responders at 5 mg/kg (S. aureus RN450 [4]) | modulation of carrageenan induced inflammation compared with reference tetracycline ([5]; IP, various doses, A vs doxycycline (FIG. 1), P vs minocycline (FIG. 2)) | MIC [1, 6] | 50% effective concentration (EC50), carrageenan induced paw inflammation [5]
CCO/N=C(/C)c1ccc(O)c2c1CC1CC3[C@H](N(C)C)C(O)=C(C(N)=O)C(=O)[C@@]3(O)C(O)=C1C2=O (stereo partly drawn) [Compound A] | > 8 µg/mL | < 4 µg/mL | 4 to 8 µg/mL (≈ 8.01 to 16 µM) | < 4 µg/mL | < 4 µg/mL | < 4 µg/mL | < 4 µg/mL | < 35 µg/mL | < 35 µg/mL | 100% | improved activity |  | 
C[C@H]1c2cccc(O)c2C(=O)C2=C(O)[C@]3(O)C(=O)C(C(N)=O)=C(O)[C@@H](N(C)C)[C@@H]3[C@@H](O)[C@@H]21 [Doxycycline, reference compound] |  |  |  |  |  |  |  |  |  |  |  | 4 to 8 µg/mL (≈ 9 to 18 µM) | approximately 50 mg/kg
CN(C)c1ccc(O)c2c1C[C@H]1C[C@H]3[C@H](N(C)C)C(O)=C(C(N)=O)C(=O)[C@@]3(O)C(O)=C1C2=O [Minocycline, reference compound] |  |  |  |  |  |  |  |  |  |  |  | 4 to 8 µg/mL (≈ 8.74 to 17.5 µM) | approximately 50 mg/kg
